The values below come from patent publication US7304046B2, “Phosphoramide compounds” (priority 1999, dated 2007).

The nature of test [1]: Releasing group activity: chemical reduction with sodium dithionite monitored by 31P NMR. The class given is physicochemical. Particulars: sodium dithionite 3 equiv, 3:4 CH3CN:0.4 M cacodylate buffer, pH ~7.4, 37° C. The protocol:
(§1) The quinone was dissolved in CH3CN (0.3 mL, or THF for 16a) and the activating agent (glutathione, or sodium dithionite) was dissolved in cacodylate buffer (0.4 mL, 0.4 M, pH 7.7). The buffer solution was added to the organic solution and the pH of the mixture was adjusted to ˜7.4. The reaction mixture was transferred to a 5-mm NMR tube, and the data acquisition was started (pulse delay 30 μs). Spectra were taken every 2.5 minutes for 0.5 h, then every 5 min for 0.5 h, then every 10 min for 1 h, and time points for each spectrum were assigned from the initiation of the reaction. Chemical shifts are reported relative to the TPPO reference. The temperature of the probe was maintained at 37° C., if necessary, using the Bruker variable temperature unit. The relative concentrations of the intermediates were determined by measuring the peak areas.
Naphthoquinone 15a was reduced with sodium dithionite (3 equiv, 3:4 CH3CN:0.4 M cacodylate buffer, pH˜7.4, 37° C.), and the reaction was followed by ^31P NMR. The resonance for quinone […] at −5.3 ppm disappeared within 5 minutes and was replaced by the resonance for the corresponding phosphoramide mustard at −12.2 ppm.

The subject of test [2] is BE cells. The experiment in a line: Test A: in vitro cytotoxicity, clonogenic survival of BE cells. The test is classed as cell-based. Particulars: 2 h drug treatment, colonies after 10 days, concentration at which there is a 1% cell survival. From the text: (§2) Test A: In Vitro Cytotoxicity (Clonogenic Survival of HT-29 and BE Cells):
(§3) The human colon carcinoma cell line HT-29 was obtained from the American Type Culture Collection (ATCC), and the BE cell line was provided by Dr. D. Ross, University of Colorado. A modification of the procedure described by Miribelli et al Cancer Research, 1985, 45, 32–39 was used to determine the clonogenic survival of the cells. HT-29 and BE cells in exponential growth were suspended in unsupplemented Eagles MEM medium (10 mL) at a final density of 1.7–2×10^5 cells/mL. Unsupplemented medium contains Minimum Essential Medium (Gibco) and HEPES (0.02 M). The drug stock solutions (0.1–40 mM) were prepared using either ethanol or dimethyl sulfoxide as solvent. The maximum amount of DMSO or ethanol used in the drug treatments was 1% of the total volume. Appropriate volumes (6.5 to 100 μL) of the drug stock solution were added to five vials of the cell suspensions, to give five different final drug concentrations, and 100 μL of solvent was added to a sixth vial for a control. The treated cells were incubated for 2 h (37° C., 5% CO2). The cells were spun down and rinsed three times with supplemented medium (3 mL) and then diluted in 5 mL of supplemented medium. Supplemented medium is prepared by adding Fetal Bovine Serum (10%), gentamicin (0.05 mg/mL), L-glutamine (0.03 mg/mL), and sodium pyruvate (0.1 mM) to unsupplemented medium. The cells were counted using a Coulter Counter and then plated at 2–3 different densities for each drug concentration and incubated for 10 days. The colonies were stained with 0.5% crystal violet in 95% ethanol and those colonies comprised of 50 or more cells were counted using a microscope and pen-style counter. The LC99 of each compound (the concentration at which there is a 1% cell survival) was determined by plotting the log surviving fraction vs. drug concentration.

For test [3], the system named is HT-29 cells. The test is described as follows: Test A: in vitro cytotoxicity, clonogenic survival of HT-29 cells. The test is classed as cell-based, human. Particulars: 2 h drug treatment, colonies after 10 days, concentration at which there is a 1% cell survival.
Text: as §2, §3

The nature of test [4]: Activation by glutathione monitored by 31P NMR. The class given is physicochemical. The protocol: as §1
Thus, the following study was conducted to determine whether glutathione would activate compounds of formula I in a similar way. Glutathione, the primary non-protein intracellular thiol, is responsible for maintaining the cellular redox environment and removing potential electrophilic cytotoxins. […] Thus, the reaction of 15a with glutathione (3 equiv, 1:1.3 CH3CN:0.4 M cacodylate buffer, pH˜7.5, RT) was monitored by ^31P NMR.

The test system of test [5] is PaCa-2 (pancreas). The experiment in a line: Growth inhibition, MTT assay, PaCa-2. The test is classed as cell-based, human. Particulars: PaCa-2, 72-h drug exposure, read-out: IC50 growth inhibitory activity. The protocol: (§4) The growth inhibitory properties of representative compounds of the invention were also determined by evaluating their growth inhibitory activity against a series of human tumor cell lines using a 72-h drug exposure. Cell counts were measured using the MTT assay.
(In general: Formazan colour is commonly taken as a measure of viable cells.)

Test [6] has as its system A4982LM cell line, a sub-line of the A498 human kidney carcinoma. The experiment in a line: Xenograft model, human tumor cells subcutaneously in nude mice. Particulars: Day 38, single dose of 25 mg/kg subcutaneously. The test is classed as in vivo. The protocol: The cytotoxic properties of a compound of the invention can also be determined using in vivo pharmacological models which are well known to the art. For example, compound 16a was tested in a xenograft model. This assay consisted of injecting nude mice subcutaneously with human tumor cells. The tumors were allowed to grow until a measurable mass was present (22 days), and a single dose of 16a was administered subcutaneously. The tumor size was measured periodically and the growth inhibition of the tumor was determined. The A4982LM cell line, a sub-line of the A498 human kidney carcinoma, was used for the xenograft assay. The A4982LM sub-line, which has a high DT-diaphorase level (1010 nmol cytochrome c reduced/min/mg protein), was developed by implanting the A498 cell line in mice and collecting the lung metastases that formed from the original tumor.

Test [7] relates to IGROV (ovarian). The test is described as follows: Growth inhibition, MTT assay, IGROV. The test is classed as cell-based, human. Particulars: 72-h drug exposure, read-out: IC50 growth inhibitory activity. As to the method:
as §4

Test [8] relates to UMUC3 (bladder). The test is described as follows: Growth inhibition, MTT assay, UMUC3. Particulars: UMUC3, 72-h drug exposure, read-out: IC50 growth inhibitory activity. The test is classed as cell-based, human. As to the method:
as §4

For test [9], the system named is human tumor cell lines. The test is described as follows: Growth inhibition, MTT assay, series of human tumor cell lines (all cell lines). The test is classed as cell-based. Particulars: all cell lines of Table 2, 72-h drug exposure. The protocol: as §4
Test [10] deals with A549 (lung). The test is described as follows: Growth inhibition, MTT assay, A549. The test is classed as cell-based, human. Particulars: A549, 72-h drug exposure, read-out: IC50 growth inhibitory activity. The protocol:
as §4

The test system of test [11] is HT-29 (colon). The experiment in a line: Growth inhibition, MTT assay, HT-29. The class given is cell-based, human. Particulars: HT-29, 72-h drug exposure, read-out: IC50 growth inhibitory activity. The protocol:
as §4

Test [12] in a line: Nucleophilic activation with sodium dimethyldithiocarbamate (DDTC) monitored by 31P NMR. The class given is physicochemical. Particulars: DDTC 3 equiv, 3:4 THF:0.4 M cacodylate buffer, pH ~7.3, RT. The protocol: as §1
The Michael addition of sulfur nucleophiles to naphthoquinones is well known; and addition to the 3-position of the quinone might provide another pathway for phosphorodiamidate anion release. Two possible products could be predicted from the Michael addition of a nucleophile to the naphthoquinone. […] Activation of 16a with DDTC (3 equiv, 3:4 THF:0.4 M cacodylate buffer, pH˜7.3, RT) was monitored using ^31P NMR. […]

Test [13] relates to MDA231 (breast). The experiment in a line: Growth inhibition, MTT assay, MDA231. The test is classed as cell-based, human. Particulars: MDA231, 72-h drug exposure, read-out: IC50 growth inhibitory activity. The protocol:
as §4

For test [14], the system named is PC-3 (prostate). The experiment in a line: Growth inhibition, MTT assay, PC-3. The class given is cell-based, human. Particulars: PC-3, 72-h drug exposure, read-out: IC50 growth inhibitory activity. As to the method:
as §4

In test [15] the test system is A498 (kidney). The test is described as follows: Growth inhibition, MTT assay, A498. The class given is cell-based, human. Particulars: A498, 72-h drug exposure, read-out: IC50 growth inhibitory activity. The protocol:
as §4

Bounds are passed on as bounds.

As to `NP(=O)(OCC1=CC(=O)c2ccccc2C1=O)N(CCCl)CCCl` (stereo not drawn) [Compound 15a, 2-(1,4-Naphthoquinonyl)methyl N,N-bis(2-chloroethyl) phosphorodiamidate], the “time until quinone resonance disappeared and was replaced by phosphoramide mustard resonance” value in test [1] is at most 5 min. For the same molecule, the LC99 in [2] turned out to be 13 µM; in [3], 11 µM. Further, the “time until quinone resonance disappeared and was replaced by phosphorodiamidate anion resonance” value in test [4] (glutathione 3 equiv, 1:1.3 CH3CN:0.4 M cacodylate buffer, pH ~7.5, RT) was at most 4 min. Besides, the “activation with one equivalent of glutathione, in words” value in test [4] (only one equivalent of glutathione, compared with 3 equiv) is “essentially identical”.
As usually defined, the IC50 is the concentration at which inhibition is half-maximal. For `NP(=O)(OCC1=CC(=O)c2ccccc2C1=O)N(CCBr)CCBr` (stereo not drawn) [Compound 16a, 2-(1,4-Naphthoquinonyl)methyl N,N-bis(2-bromoethyl) phosphorodiamidate], the IC50 was found to be 4.42 µM in [5]; 18.9 µM in [7]; 2.82 µM in test [8]; 4.58 µM in [10]; 15.3 µM in test [11]; 14.7 µM in test [13]. Besides, the IC50 is 9.19 µM in [14] and 15.6 µM in test [15]. Besides, the “growth inhibition of the tumor” value in [6] was determined as 40%. Moreover, the LC99 in test [2] came to 4.6 µM; in [3], 7.8 µM. In addition, the “IC50 in words, against all cell lines” value in [9] was “low micromolar range”. Also, in test [12], the “time until quinone resonance disappeared and was replaced by phosphorodiamidate anion resonance” value is at most 5 min.
